# How the values were obtained:
# [1] = (S)-Methoprene concentration in fat of rat upon in vivo administration (radioassay/TLC); set-up: species or system Sprague-Dawley male rats
# Procedure: Sprague-Dawley CD® VAF/PLUS® male rats were purchased from Charles River Breeding Laboratories, Inc., Portage, Michigan, USA. The body weights of the rats averaged 200 g at the time of dose administration. The rats were quarantined for five days before use, except for jugular vein-cannulated rats, to which doses were administered 1 to 3 days after receipt. The rats were divided into three groups for dosage with ^14C-(S)-methoprene: • Group A received a single dose of 10 mg/kg of the ovicide through intravenous injection via the jugular vein. Three rats each were sacrificed at 0.5 hour, 1 hour, 2 hours, 3 hours, 4 hours, 5 hours, 6 hours, and 7 hours after dosing. • Group B received a single dose 10 mg/kg of the ovicide through oral administration by gavage dosing. Three rats each were sacrificed at 1 hour, 2 hours, 3 hours, 4 hours, 5 hours, 6 hours, 7 hours, and 8 hours after dosing. • Group C received a single dose 100 mg/kg of the ovicide through oral administration by gavage dosing. Three rats each were sacrificed at 1 hour, 2 hours, 3 hours, 4 hours, 5 hours, 6 hours, 7 hours, and 8 hours after dosing. After dosing the rats were house individually in cages. Daily room temperature was maintained between 69°C and […] and the relative humidity was between 40% and 70%. All rats had free access to food and fresh tap water.
# For analyses of the ovicide in fat, visceral fat was collected from the sacrificed rats. The fat sample from each rat was thoroughly mixed 1:1 with cellulose powder, and homogenized with a few drops of water. A portion (0.5 to 1 g) of each fat sample was extracted with 10 mL of a mixture of hexane/diethyl ether (1:1), which was treated vigorously on a sonicator for four minutes, then vortex mixed for two minutes and centrifuged. This procedure was repeated twice. The extracts were then combined, radioassayed, rotary evaporated, and concentrated under nitrogen for TLC analysis. A small amount of methanol was added to precipitate the fat to improve the TLC separation. Radioassays and TLC analyses were performed in the same manner as for the blood samples.
# C. felis = assay: Systemic flea ovicidal activity upon oral administration to host dogs (Example 2); type: in vivo, C. felis (host: dogs); conditions: for Percent Inhibition of Flea Egg Hatching: relative to placebo
# Source text: Nine random-bred, clinically healthy dogs, five male and four female, ranging in weight from 7.5 to 14.9 kg and in age from 7 months to 68 months, and having hair coats ranging from fine to coarse and from 1.0 to 2.5 cm in length, were used. The dogs were assigned to three treatment groups based on weight, one group designated to receive a placebo (gelatin capsules containing no (S)-methoprene), the second group to receive gelatin capsules individually prepared to contain the appropriate quantity of (S)-methoprene such that one capsule would provide 25.0 mg (S)-methoprene per kg of the body weight of a particular dog, and the third group to receive gelatin capsules individually prepared to provide 50.0 mg/kg of body weight per dog. […]
# Eleven days before the administration of the first gelatin capsule (i.e., on Day -11), and weekly thereafter through Day 59, each dog was infested with approximately 200 one-to two-week-old, unfed adult C. fells fleas of mixed sex ratio. Each dog was restrained for about one minute while the fleas were released along the dorsum.
# […] Prior to egg collection, the cages in which the dogs were housed and the collection trays were rinsed with isopropyl alcohol, and the water was turned off, feed bowls and resting pads were removed from each cage. Trays covered with a screen made of […] hardware cloth were placed under the cages, and heavy white butcher paper was placed under the hardware cloth. After an interval of 14-16 hours, the paper was swept and the debris and flea eggs thus collected were transferred to a metal pan. The debris was separated from the eggs by sieving, and the eggs were placed in half-pint plastic cartons, then transferred to 10 cm x 10 cm glass plates. Using a dissecting microscope and a fine tipped artist brush, 100 flea eggs were counted from the sweepings of each dog and separated into four replicates of 25 eggs each. The eggs were placed in a 15 mm x 60 mm disposable plastic petri dish and incubated at 79-80°F and 80% relative humidity. Seventy two hours after collection, larvae emergence was determined. Both dead and live larvae were counted to determine the ovicidal effect of the treatment.
# The results are listed in Table II below, where each entry represents the percent inhibition of hatching of fleas from the flea eggs relative to the placebo group, and each entry is the average of all replicates and of all three dogs in the particular treatment group.
compound,measurement,setting,value
"COC(C)(C)CCC[C@H](C)C/C=C/C(C)=C/C(=O)OC(C)C [(S)-Methoprene, 1-isopropyl (E,E)-11-methoxy-3,7,11-trimethyl dodecadi-2,4-enoate]",(S)-Methoprene Concentration in Fat,"[1]; Group A 10 mg/kg I.V., 0.5 hours, average of three animals",4.193 ± 1.566 ppm
same,(S)-Methoprene Concentration in Fat,"[1]; Group A 10 mg/kg I.V., 1 hour, average of three animals",6.936 ± 3.259 ppm
same,(S)-Methoprene Concentration in Fat,"[1]; Group A 10 mg/kg I.V., 2 hours, average of three animals",5.929 ± 1.197 ppm
same,(S)-Methoprene Concentration in Fat,"[1]; Group A 10 mg/kg I.V., 3 hours, average of three animals",5.233 ± 0.457 ppm
same,(S)-Methoprene Concentration in Fat,"[1]; Group A 10 mg/kg I.V., 4 hours, average of three animals",8.179 ± 3.532 ppm
same,(S)-Methoprene Concentration in Fat,"[1]; Group A 10 mg/kg I.V., 5 hours, average of three animals",7.596 ± 3.990 ppm
same,(S)-Methoprene Concentration in Fat,"[1]; Group A 10 mg/kg I.V., 6 hours, average of three animals",6.734 ± 2.209 ppm
same,(S)-Methoprene Concentration in Fat,"[1]; Group A 10 mg/kg I.V., 7 hours, average of three animals",8.077 ± 1.082 ppm
same,(S)-Methoprene Concentration in Fat,"[1]; Group B 10 mg/kg oral, 1 hour, average of three animals",0.272 ± 0.103 ppm
same,(S)-Methoprene Concentration in Fat,"[1]; Group B 10 mg/kg oral, 2 hours, average of three animals",1.138 ± 0.388 ppm
same,(S)-Methoprene Concentration in Fat,"[1]; Group B 10 mg/kg oral, 3 hours, average of three animals",1.715 ± 0.680 ppm
same,(S)-Methoprene Concentration in Fat,"[1]; Group B 10 mg/kg oral, 4 hours, average of three animals",2.327 ± 1.090 ppm
same,(S)-Methoprene Concentration in Fat,"[1]; Group B 10 mg/kg oral, 5 hours, average of three animals",2.980 ± 0.657 ppm
same,(S)-Methoprene Concentration in Fat,"[1]; Group B 10 mg/kg oral, 6 hours, average of three animals",3.369 ± 0.814 ppm
same,(S)-Methoprene Concentration in Fat,"[1]; Group B 10 mg/kg oral, 7 hours, average of three animals",2.921 ± 1.345 ppm
same,(S)-Methoprene Concentration in Fat,"[1]; Group B 10 mg/kg oral, 8 hours, average of three animals",2.408 ± 0.702 ppm
same,(S)-Methoprene Concentration in Fat,"[1]; Group C 100 mg/kg oral, 1 hour, average of two animals",1.060 ± 0.270 ppm
same,(S)-Methoprene Concentration in Fat,"[1]; Group C 100 mg/kg oral, 2 hours, average of three animals",14.726 ± 3.371 ppm
same,(S)-Methoprene Concentration in Fat,"[1]; Group C 100 mg/kg oral, 3 hours, average of three animals",22.868 ± 3.322 ppm
same,(S)-Methoprene Concentration in Fat,"[1]; Group C 100 mg/kg oral, 4 hours, average of three animals",45.316 ± 16.910 ppm
same,(S)-Methoprene Concentration in Fat,"[1]; Group C 100 mg/kg oral, 5 hours, average of three animals",38.420 ± 2.765 ppm
same,(S)-Methoprene Concentration in Fat,"[1]; Group C 100 mg/kg oral, 6 hours, average of three animals",41.898 ± 11.568 ppm
same,(S)-Methoprene Concentration in Fat,"[1]; Group C 100 mg/kg oral, 7 hours, average of three animals",39.393 ± 17.952 ppm
same,(S)-Methoprene Concentration in Fat,"[1]; Group C 100 mg/kg oral, 8 hours, average of three animals",47.162 ± 20.116 ppm
same,duration of ovicidal efficacy,C. felis; administered systemically to host dogs at 50 mg/kg and 25 mg/kg,two weeks or more
same,time effective in controlling fleas,C. felis; following a single oral dose of 50 mg/kg to dogs,14 days
same,Percent Inhibition of Flea Egg Hatching,"C. felis; oral 25 mg/kg once on Day 0 and once on Day 33, 1 day after initial administration",92.3%
same,Percent Inhibition of Flea Egg Hatching,"C. felis; oral 25 mg/kg once on Day 0 and once on Day 33, 2 days after initial administration",80.4%
same,Percent Inhibition of Flea Egg Hatching,"C. felis; oral 25 mg/kg once on Day 0 and once on Day 33, 4 days after initial administration",100.0%
same,Percent Inhibition of Flea Egg Hatching,"C. felis; oral 25 mg/kg once on Day 0 and once on Day 33, 7 days after initial administration",44.4%
same,Percent Inhibition of Flea Egg Hatching,"C. felis; oral 25 mg/kg once on Day 0 and once on Day 33, 14 days after initial administration",75.1%
same,Percent Inhibition of Flea Egg Hatching,"C. felis; oral 25 mg/kg once on Day 0 and once on Day 33, 21 days after initial administration",79.0%
same,Percent Inhibition of Flea Egg Hatching,"C. felis; oral 25 mg/kg once on Day 0 and once on Day 33, 28 days after initial administration",39.9%
same,Percent Inhibition of Flea Egg Hatching,"C. felis; oral 25 mg/kg once on Day 0 and once on Day 33, 35 days after initial administration",100.0%
same,Percent Inhibition of Flea Egg Hatching,"C. felis; oral 25 mg/kg once on Day 0 and once on Day 33, 42 days after initial administration",95.9%
same,Percent Inhibition of Flea Egg Hatching,"C. felis; oral 25 mg/kg once on Day 0 and once on Day 33, 49 days after initial administration",11.3%
same,Percent Inhibition of Flea Egg Hatching,"C. felis; oral 25 mg/kg once on Day 0 and once on Day 33, 55 days after initial administration",12.6%
same,Percent Inhibition of Flea Egg Hatching,"C. felis; oral 25 mg/kg once on Day 0 and once on Day 33, 63 days after initial administration",14.0%
same,Percent Inhibition of Flea Egg Hatching,"C. felis; oral 50 mg/kg once on Day 0 and once on Day 33, 1 day after initial administration",98.9%
same,Percent Inhibition of Flea Egg Hatching,"C. felis; oral 50 mg/kg once on Day 0 and once on Day 33, 2 days after initial administration",100.0%
same,Percent Inhibition of Flea Egg Hatching,"C. felis; oral 50 mg/kg once on Day 0 and once on Day 33, 4 days after initial administration",100.0%
same,Percent Inhibition of Flea Egg Hatching,"C. felis; oral 50 mg/kg once on Day 0 and once on Day 33, 7 days after initial administration",97.5%
same,Percent Inhibition of Flea Egg Hatching,"C. felis; oral 50 mg/kg once on Day 0 and once on Day 33, 14 days after initial administration",97.9%
same,Percent Inhibition of Flea Egg Hatching,"C. felis; oral 50 mg/kg once on Day 0 and once on Day 33, 21 days after initial administration",73.0%
same,Percent Inhibition of Flea Egg Hatching,"C. felis; oral 50 mg/kg once on Day 0 and once on Day 33, 28 days after initial administration",50.8%
same,Percent Inhibition of Flea Egg Hatching,"C. felis; oral 50 mg/kg once on Day 0 and once on Day 33, 35 days after initial administration",100.0%
same,Percent Inhibition of Flea Egg Hatching,"C. felis; oral 50 mg/kg once on Day 0 and once on Day 33, 42 days after initial administration",100.0%
same,Percent Inhibition of Flea Egg Hatching,"C. felis; oral 50 mg/kg once on Day 0 and once on Day 33, 49 days after initial administration",51.5%
same,Percent Inhibition of Flea Egg Hatching,"C. felis; oral 50 mg/kg once on Day 0 and once on Day 33, 55 days after initial administration",31.9%
same,Percent Inhibition of Flea Egg Hatching,"C. felis; oral 50 mg/kg once on Day 0 and once on Day 33, 63 days after initial administration",16.1%

# Source: EP0923292B1, “IMPROVED METHOD FOR SYSTEMIC ADMINISTRATION OF 2,4-DIENOIC ACID-TYPE INSECTICIDES TO TERRESTRIAL MAMMALS” (priority 1996, dated 1998)
